Reference: patent US6432416B1, “Anti-microbial power coating” (Dupont Powder Coatings USA, Inc., priority 1997, dated 2002)

Assays:
[1] = system: Aspergillus niger (ATCC 6275), Penicillium funiculosum (ATCC 11797), and Aureobasidium pullulans (ATCC 9348); experiment: Resistance to fungal growth, ASTM D5590-95, mixed spore suspension; conditions: concentration of 1 percent; four weeks of exposure to fungus spores
Method: Resistance to fungal growth was tested generally in accordance with ASTM D5590-95. […] Samples were aseptically placed onto a modified malt agar plate and then each sample was inoculated.
The same samples were also exposed to fungus spores for a period of four weeks.

[2] = system: Pseudomonas aeruginosa, Staphylococcus aureus, and Escherichia coli; experiment: Shorter-term bacterial test per ASTM D 5588-94; format: cell-based; conditions: after 72 hours of incubation; 0.1 percent and 1 percent formulations
Method: Steel coupons were coated with the Fungitrol® 11, Butyl Parabens®, and Amerstat® 300 anti-microbial formulations, at 0.1 percent and 1 percent, and exposed as per ASTM D 5588-94 to a mixture containing the bacteria Pseudomonas aeruginosa, Staphylococcus aureus, and Escherichia coli. After the coupons were washed with a 70 percent ethanol/water solution, they were placed in a sterile Petri dish, inoculated, and incubated at 32° C. for the duration of the test.
At appropriate intervals, each sample was checked for the presence of viable microorganisms by streaking each sample with a sterile cotton swab, then streaking the swab onto Tryptic Soy Agar. The plates were incubated for 48 hours at 32° C. […] The presence of microbial growth would indicate non-sterility, i.e., the sample contained viable microbial contamination.
The samples were examined for low levels of bacterial contamination by transferring an aliquot with a sterile cotton swab to a Tryptic Soy Broth in culture tubes. The tubes were incubated for 24 hours at 32° C., streaked onto Tryptic Soy Agar plates and the plates were incubated for 24 to 48 hours at 32° C.

[3] = system: Pseudomonas aeruginosa, Escherichia coli, and Salmonella typhinurium; experiment: Long-term anti-microbial activity test of cured powder coatings (bacterial coverage rating); conditions: cured epoxy powder coating; for AVERAGE BACTERIAL COVERAGE: growth rating 0 (good) to 4 (poor), averaged over the different samples (0.1 and 1 percent additive, different thickness), after four weeks; for bacterial coverage / activity relative to the control: long-term test
Method: A long-term anti-microbial activity test was carried out to determine if selected anti-microbial agents maintain their anti-microbial activity after being incorporated into powder coatings and cured.
Six anti-microbial agents were selected for experimentation. […] For each powder coating formulation, one of the six anti-microbial agents was added at concentrations of 0.1 percent and 1 percent of the total resin weight.
Samples containing one of the six additives at the two concentrations in the coating matrix were prepared. […] Controls containing the coating formulation with no additive and controls containing only the black silicone resin used for edge coverage were included.
The target bacterial organisms were Pseudomonas aeruginosa, Escherichia coli, and Salmonella typhinurium. Five groups of samples were prepared. […] Each of the following samples was prepared with an additive concentration of 1 percent of the resin by weight.
The results were then rated on a scale of “0” (good performance) to “4” (poor performance) based on the number of colony-forming units observed. The growth ratings, which were averaged over the different samples, are based on the following numerical rating system:
0=No contamination (sterile).
1=Trace of contamination (1-9 colonies per “streak-inch”).
2=Light contamination (10-99 colonies per “streak-inch”).
3=Moderate contamination (greater than 100 colonies, but still distinguishable).
4=Heavy contamination (continuous smear of growth).

[4] = system: fungus spores of Aspergillus niger, Penicillium funiculosum, and Aerobasidium pullulans; experiment: Shorter-term fungal test per ASTM D 5588-94; format: cell-based; conditions: after 72 hours of incubation
Method: Next, steel coupons were coated with the anti-microbial formulations listed above and exposed per ASTM D 5588-94 to a mixture containing the fungus spores of Aspergillus niger, Penicillium funiculosum, and Aerobasidium pullulans. After the coupons were washed with a 70 percent ethanol/water solution, they were placed in a sterile Petri dish, inoculated, and incubated at 28° C. for the duration of the test. At appropriate intervals, each sample was checked for the presence of viable microorganisms by streaking each sample with a sterile cotton swab, then streaking the swab onto Potato Dextrose Agar (adjusted to pH 3.5 for fungi). These plates were also incubated at 28° C. […] The presence of microbial growth would indicate non-sterility, i.e., the sample contained viable microbial contamination.

[5] = system: Staphylococcus aureus, Escherichia coli, and Salmonella choleraesuis; experiment: AATCC Test Method 147 at higher anti-microbial concentration (zones of inhibition)
[6] = 5 percent agent in powder coating

Row | Compound | fungal growth on coating surface [1] | AVERAGE BACTERIAL COVERAGE [3] | bacterial coverage / activity relative to the control [3] | other results
1 | N#CC(Br)(Br)C(N)=O [Amerstat® 300, dibromocyanoacetamide] | a very small amount of fungal growth | 1.6 ± 1.5 | significantly improved bacterial coverage | bacterial growth on coated samples [2]: did not show conclusive results
2 | CCCCOC(=O)c1ccc(O)cc1 [Butyl Parabens®, butyl-p-hydroxy-benzoate] | free of visible fungal growth | 2.6 ± 1.3 | – | bacterial growth on coated samples [2]: free of bacterial growth and were actually sterile; growth on coated samples exposed to fungus spores [4]: free of (or showed very low levels of) bacterial growth
3 | O=[N+]([O-])C(Br)(CO)CO [Canguard® 409, 2-bromo-2-nitropropane-1,3-diol] | – | – | – | zones of inhibition [5, 6]: Significant zones of inhibition; inhibiting the growth of Escherichia coli and Salmonella choleraesuis, compared with the triclosan formulation [5]: performed better than the triclosan formulation
4 | Oc1cc(Cl)ccc1Oc1ccc(Cl)cc1Cl [Irgasan® DP 400, 5-chloro-2-(2,4-dichloro-phenoxy)phenol] | – | – | – | zones of inhibition ([5]; 3 percent agent in powder coating): Significant zones of inhibition
5 | N#Cc1c(Cl)c(Cl)c(Cl)c(C#N)c1Cl [Nuocide® 960, tetrachloroisophthalonitrile] | free of visible fungal growth | 3.0 ± 1.3 | – | –
6 | CN1CSC(=S)N(C)C1 [Nuosept® S, 3,5-dimethyltetrahydro-1,3,5-2H-thiazine-2-thione] | did not show conclusive fungal resistance | 3.6 ± 0.5 | did not appear to improve the activity relative to the control | zones of inhibition [5, 6]: Significant zones of inhibition; zones of inhibition ([5]; 10 percent agent in powder coating): Significant zones of inhibition; inhibiting the growth of Escherichia coli and Salmonella choleraesuis, compared with the triclosan formulation [5]: performed as well as or better than the triclosan formulation
7 | CCCOC(=O)c1ccc(O)cc1 [Propyl Parabens®] | free of visible fungal growth | 3.7 ± 0.5 | did not appear to improve the activity relative to the control | –
